# What was measured:
# [1] = system: HIV-1 clinical isolated, characterised by mutations in the protease gene inducing geno-phenotypic resistance to IDV; assay: p24 production susceptibility test (ACTG protocol), Table 9; format: cell-based; details: PBMC, ratio to HIV-IIIB
# Text: (§1) For the phenotype of the nucleosidic, non-nucleosidic and proteases inhibitors was utilised a method which consider the use of human PBMC and the protocol standardised by the AIDS Clinical Trials Group, after verifying the genotype by sequence analysis.
# (§2) In order to assay in vitro the susceptibility to chloroquine and hydroxychloroquine of the viral strains, it was used the protocol of the ACTG which is characterised by the measure, of the production of antigen p24 in strongly infected cells.
# (§3) The susceptibility of the viral strains to chemotherapics was determined in cell cultures, prepared in 96 wells microplates, using, for the infection, 0.1 MOI.
# (§4) The supernatant of the infected cultures (either in absence or in presence of different concentrations of chemotherapic) were tested for the production of p24 after 7 days, using an ELISA test which is commercially available.
# (§5) The concentrations of chloroquine and hydroxychloroquine tested ranged from 0.5 to 15 uM. At the same time non-infected cells were incubated with concentrations of chloroquine and hydroxychloroquine ranging from 0 to 50 uM to evaluate the toxicity of the compound.
# (§6) After 4 day from the infection, half the cellular medium was replaced with a medium containing the corresponding dilution of chloroquine and hydroxychloroquine. The percentage of inhibition of the HIV replication, induced by chloroquine and hydroxychloroquine, was determined, after 7 day from the infection, comparing the levels of p24 of this cultures and that of the control, infected and not treated with chloroquine and hydroxychloroquine.
# (§7) Therefore, the E.C.50 of chloroquine and hydroxychloroquine expresses the concentration of chemotherapic that inhibits the 50% of production of p24 and the values were calculated using linear and non linear regression analysis (the significativity for the non linear regression was R^2>0.95).
# (§8) In the same experimental conditions and in the same day, but with similar concentrations of chloroquine and hydroxychloroquine, it was evaluated the vitality of the infect cell cultures, and this was expressed as I.C.50.
# (§9) I.C.50 (Inhibitory Concentration) indicates the concentration of the chemotherapic agent inhibiting the vitality of the cell cultures at a rate of 50%, when there is not infection.
# [2] = system: HIV-1 strains geno-phenotypically resistant to NVP; assay: p24 production susceptibility test, Table 6, MT-2 cells; format: cell-based; details: MT-2, ratio to HIV-IIIB
# Text: as §1, §2, §3, §4, §5, §6, §7, §8, §9
# [3] = system: HIV-1 strains geno-phenotypically resistant to NVP; assay: as above; format: cell-based; details: ratio to HIV-IIIB
# [4] = system: HIV-1 clinical isolated, characterised by mutations on the protease gene inducing geno-phenotypic resistance to NFV; assay: p24 production susceptibility test (ACTG protocol), Table 10, PBMC; format: cell-based; details: ratio to HIV-IIIB
# Text: as §1, §2, §3, §4, §5, §6, §7, §8, §9
# [5] = system: HIV-1 clinical isolated, characterised by mutations on the protease gene inducing geno-phenotypic resistance to NFV; assay: p24 production susceptibility test, Table 10, H-9 cells; format: cell-based; details: H-9, ratio to HIV-IIIB
# Text: as §1, §2, §3, §4, §5, §6, §7, §8, §9
# [6] = system: HIV-1 clinical isolated, characterised by mutations in the RT gene inducing geno-phenotypic resistance to d4T; assay: p24 production susceptibility test (ACTG protocol), Table 4; format: cell-based; details: PBMC, ratio to HIV-IIIB
# Text: as §1, §2, §3, §4, §5, §6, §7, §8, §9
# [7] = system: HIV-1 strains geno-phenotypically resistant to EFV; assay: p24 production susceptibility test, Table 7, MT-2 cells; format: cell-based; details: MT-2, ratio to HIV-IIIB
# Text: as §1, §2, §3, §4, §5, §6, §7, §8, §9
# [8] = system: HIV-1 strains geno-phenotypically resistant to EFV; assay: as above; format: cell-based; details: ratio to HIV-IIIB
# [9] = system: HIV-1 clinical isolated, characterised by mutations in the RT gene inducing geno-phenotypic resistance to ABC; assay: p24 production susceptibility test (ACTG protocol), Table 5; format: cell-based; details: PBMC, ratio to HIV-IIIB
# Text: as §1, §2, §3, §4, §5, §6, §7, §8, §9
# [10] = system: HIV clinical isolated, characterised by mutations in the RT gene inducing geno-phenotypic resistance to AZT; assay: p24 production susceptibility test (ACTG protocol), Table 1; format: cell-based, HIV-1; details: PBMC, ratio to HIV-IIIB
# Text: as §1, §2, §3, §4, §5, §6, §7, §8, §9
# [11] = system: HIV clinical isolated, characterised by mutations in the RT gene inducing geno-phenotypic resistance to ddI; assay: p24 production susceptibility test (ACTG protocol), Table 2; format: cell-based, HIV-1; details: PBMC, ratio to HIV-IIIB
# Text: as §1, §2, §3, §4, §5, §6, §7, §8, §9
# HIV = details: 16 weeks, cited from earlier work
# [12] = system: HIV-1 clinical isolated, characterised by mutations in the protease gene inducing geno-phenotypic resistance to SQV; assay: p24 production susceptibility test (ACTG protocol), Table 8; format: cell-based; details: PBMC, ratio to HIV-IIIB
# Text: as §1, §2, §3, §4, §5, §6, §7, §8, §9
structure (smiles),measurement,setting,value
"CC(C)(C)NC(=O)[C@@H]1CN(Cc2cccnc2)CCN1C[C@@H](O)C[C@@H](Cc1ccccc1)C(=O)N[C@H]1c2ccccc2C[C@H]1O [IDV, Indinavir]",Fen. IDV (fold),[1]; Gen. G48V V82A,>80X fold
same,Fen. IDV (fold),[1]; Gen. I84V L90M,20X fold
same,Fen. IDV (fold),[1]; Gen. K20R E35D M36I I54V V82T,10X fold
same,Fen. IDV (fold),[1]; Gen. L10R M46I L63P V82T,10X fold
same,Fen. IDV (fold),[1]; Gen. V82F L90M,>80X fold
"Cc1ccnc2c1NC(=O)c1cccnc1N2C1CC1 [NVP, Nevirapine]",Fen. NVP (fold),[2]; Gen. G190E,>80X fold
same,Fen. NVP (fold),[2]; Gen. V106A,>80X fold
same,Fen. NVP (fold),[3]; Gen. K103N,>80X fold
same,Fen. NVP (fold),[3]; Gen. Y181C,>80X fold
"Cc1c(O)cccc1C(=O)N[C@@H](CSc1ccccc1)[C@H](O)CN1C[C@H]2CCCC[C@H]2C[C@H]1C(=O)NC(C)(C)C [NFV, Nelfinavir]",Fen. NFV (fold),[4]; Gen. D30N A71V,30X fold
same,Fen. NFV (fold),[4]; Gen. D30N M46V A71V,30X fold
same,Fen. NFV (fold),[4]; Gen. G48V V92A,>80X fold
same,Fen. NFV (fold),[4]; Gen. V82F L90M,>80X fold
same,Fen. NFV (fold),[5]; Gen. D30N,30X fold
same,Fen. NFV (fold),[5]; Gen. V82A,20X fold
"Cc1cn([C@H]2C=C[C@@H](CO)O2)c(=O)[nH]c1=O [D4T, Stavudine]",Fen. D4T (fold),[6]; Gen. K65R F77L Y115F Q151M M184V,40X fold
same,Fen. D4T (fold),[6]; Gen. K65R F116Y Q151M,40X fold
same,Fen. D4T (fold),[6]; Gen. M41I T69SSS T215Y,10X fold
same,Fen. D4T (fold),[6]; Gen. T69SSS T215Y,10X fold
same,Fen. D4T (fold),[6]; Gen. V75I F77L F116Y Q151M,20X fold
"O=C1Nc2ccc(Cl)cc2[C@@](C#CC2CC2)(C(F)(F)F)O1 [EFV, Efavirenz]",Fen. EFV (fold),[7]; Gen. K101D K103N,>80X fold
same,Fen. EFV (fold),[7]; Gen. K103N Y181C,>80X fold
same,Fen. EFV (fold),[7]; Gen. L100I K103N,>80X fold
same,Fen. EFV (fold),[8]; Gen. K103N V108D,>80X fold
same,Fen. EFV (fold),[8]; Gen. K103N,>80X fold
same,Fen. EFV (fold),[8]; Gen. Y181C,20X fold
"Nc1nc(NC2CC2)c2ncn([C@H]3C=C[C@@H](CO)C3)c2n1 [ABC, Abacavir]",Fen. ABC (fold),[9]; Gen. K65R L74V M184V,10X fold
same,Fen. ABC (fold),[9]; Gen. K65R S68G F77L Y115F Q151M M184V,40X fold
same,Fen. ABC (fold),[9]; Gen. L74V M184F,10X fold
same,Fen. ABC (fold),[9]; Gen. L74V Y115F M184V,10X fold
same,Fen. ABC (fold),[9]; Gen. M41L D67N M184V L210W T215Y,10X fold
"Cc1cn([C@H]2C[C@H](N=[N+]=[N-])[C@@H](CO)O2)c(=O)[nH]c1=O [AZT, Zidovudine]",Fen AZT (fold),[10]; Gen. D67N K70R T215F K219Q,20X fold
same,Fen AZT (fold),[10]; Gen. D 67 Ns K 70N T215F K219Q,>80X fold
same,Fen AZT (fold),[10]; Gen. K70R T215F K219Q,20X fold
same,Fen AZT (fold),[10]; Gen. M41I M184V L210W R221K T215Y,20X fold
same,Fen AZT (fold),[10]; Gen. M41I T215Y,40X fold
same,Fen AZT (fold),[10]; Gen. M41L D67N K70RM 184V T215F,>80X fold
same,Fen AZT (fold),[10]; Gen. M41LD 76N K70R T215Y,>80X fold
same,Fen. AZT (fold),[11]; Gen D67N K70R M184V T215Y,40X fold
same,Fen. AZT (fold),[11]; Gen D67N K70R T215F K70R,>80X fold
same,Fen. AZT (fold),[11]; Gen K70R T215F K219Q,20X fold
same,Fen. AZT (fold),[11]; Gen M4IL M184V L210W R211KL 214F T215Y,20X fold
same,Fen. AZT (fold),[11]; Gen M41I T215F,40X fold
same,Fen. AZT (fold),[11]; Gen M41L D67N K70R M184V T215Y,>80X fold
same,Fen. AZT (fold),[11]; Gen M41L D67N K70R T215Y,>80X fold
same,negative events,"HIV; hydroxychloroquine 800 mg/day, AZT 500 mg/day",no negative events were observed
same,patients with an increase of the plasmatic viremia at the end of the treatment,HIV; AZT 500 mg/day (n=37),8 patients
"CC(C)(C)NC(=O)[C@@H]1C[C@@H]2CCCC[C@@H]2CN1C[C@@H](O)[C@H](Cc1ccccc1)NC(=O)[C@H](CC(N)=O)NC(=O)c1ccc2ccccc2n1 [SQV, Saquinavir]",Fen. SQV (fold),[12]; Gen. G48V I84V A74V L90M,40X fold
same,Fen. SQV (fold),[12]; Gen. G48V V82A,>80X fold
same,Fen. SQV (fold),[12]; Gen. I84V L90M,>80X fold
same,Fen. SQV (fold),[12]; Gen. M46I G48V L63P L90M,20X fold
same,Fen. SQV (fold),[12]; Gen. V82A L90M,20X fold

# Reference: patent US20040006103A1, “Use of chloroquine, hydroxychloroquine and 4 amino-quinolinic derivatives to obtain a drug for the anti retroviral therapy, active towards HIV sensitive strains and towards HIV strains which are resistant to both nucleosidic and non-nucleosidic reverse transcriptase inhibitors and to proteases …” (VALPHARMA S.A., priority 2002, published 2004)
